Reference: patent US10858305B2, “Perillyl alcohol-3-bromopyruvate conjugate and methods of treating cancer” (NeOnc Technologies, Inc., priority 2016, dated 2020)
“Also recorded” adds a separate entry of the source. Read-outs that look alike come from different tables or passages of the source.

Experiments:
[1] = test system: all cell types (breast, brain, ovary, colon cancer cell lines); test: Summary of cytotoxicity over MTT, LDH and colony formation assays (FIGS. 2-5); type: cell-based, human; conditions: for IC50: Homo sapiens
Description: The tumor cell-killing potency of NEO218 was characterized by in vitro, short-term MTT assays (measuring viability of cells via determination of metabolic activity), LDH assays (measuring the release of lactate dehydrogenase as an indicator of leaky cell membranes, which are indicative of dying cells), and colony-formation assays (CFA, which determine long-term survival of drug-treated cells and their ability to spawn a colony of descendants). Several established cell lines derived from cancers of the breast were used as target cells (including MDA-MB-231; MDA-MB-468; T47D; MCF7; MCF7/Dox; BTB12), brain (T98G; U251), ovary (A2780), and colon (HCT116). In all cases, cells in culture were exposed to increasing concentrations of agents for 24 or 48 hours.

[2] = biological target: T1, GAPDH (Homo sapiens, UniProt P04406); test: GAPDH activity assay after 30 minutes drug treatment of living cells; type: cell-based; set-up: endogenous in cells
Procedure: (§1) (A) HCT116 cells were treated with 40 μM 3-BP or NEO218 in the presence or absence of 1 mM NAC, 1 mM GSH, or 50 mM methyl-pyruvate (or sodium pyruvate, which produced similar outcomes). Cell viability was determined 24 hours later by MTT assay. (B) HCT116 cells were treated with 30 or 100 μM 3-BP or NEO218. After 30 minutes, cell lysates were prepared and analyzed for GAPDH activity. (C) Lysates from non-drug-treated MDA-MB-231 cells were mixed with 3-BP or NEO218 in the presence or absence of NAC or GSH at the concentrations mentioned in A. After 1 hour of incubation, GAPDH activity was determined. GAPDH activity in the absence of drug treatment was set at 100% (corresponding to 0.06 units/min×10^6 cells).
Enzymatic activity of GAPDH in vitro was measured with the Colorimetric GAPDH Assay kit (ScienCell Research Laboratories, Carlsbad, Calif.). This assay is based on the oxidization of β-NADH to β-NAD in the presence of 3-phosphoglyceric acid, ATP and GAPDH. GAPDH activity is determined by assaying the rate of NADH oxidation, which is proportional to the reduction in absorbance at 340 nm over time (ΔA340 nm/min). One hundred thousand cells were lysed in 100 μL cell lysis buffer and incubated with the above components. Changes in absorbance over 10 minutes were calculated and normalized to untreated controls. Data are presented as percentage of controls. […]

[3] = test system: HCT116 cells; test: FACS analysis for annexin V and propidium iodide; type: cell-based, human; conditions: for incorporation of PI (necrosis) versus annexin V (apoptosis): 2, 4 or 8 hours of treatment; for earliest detection of shift to PI-positive quadrant after onset of treatment: HCT116, 30 μM; for PI-positive cells at 8 hours: HCT116, 8 hours
Procedure: (A) FACS analysis of HCT116 cells after treatment for 2, 4, or 8 hours with vehicle, 30 μM 3-BP, 30 μM NEO218, or 1 μM staurosporine (STS). […] (B) Western blot analysis of apoptotic markers. In the top section, MDA-MB-231 cells were treated with 30 μM NEO218 or 1 μM STS for various time points. In the lower section, HCT116 cells were treated with the indicated concentrations of 3-BP, NEO218, or STS for 16 hours. In all cases cell lysates were prepared and analyzed for the well-established apoptotic markers cleaved PARP, cleaved (i.e., activated) caspase 7 (cl. C-7), and phosphorylated (i.e., active) H2AX. Actin was used as a loading control. (C) HCT116 cells were pretreated with 50 μM Z-VAD-FMK for one hour, followed by the addition of increasing concentrations of 3-BP or NEO218. Cell viability was determined by MTT assay 24 hours later. Data points are averages from n=3.
In the absence of indications that apoptotic mechanisms played a significant role in cell death induced by NEO218, necrosis was investigated as a potential key mechanism. The distinction between apoptotic and necrotic cell death was made by measuring annexin V staining (a marker of apoptosis) and PI (propidium iodide) staining (a marker of necrosis) of drug-treated cells, in comparison to non-drug-treated cells (as a control). Measurements of annexin V and PI were done by FACS analysis after 2, 4, or 8 hours of treatment. Cells were treated with NEO218, 3-BP, and staurosporine (individually), and incorporation of propidium iodide (PI, a marker of necrotic cell death) or annexin V (a marker for apoptosis) was determined by fluorescence-activated cell sorting.
The results are organized in FIG. 8 as follows: no treatment (top row), 3-BP (second row), NEO218 (third row), and staurosporine (bottom row).
Characterization of cell death was performed by flow cytometry using the Alexa Fluor® 488 Annexin V/Dead Cell Apoptosis kit (Thermo Fisher Scientific). This kit contains recombinant, green fluorophore-conjugated annexin V, which reacts with apoptotic cells, and DNA-binding, red-fluorescent propidium iodide (PI), which is impermeant to live and apoptotic cells, but stains dead cells. The different cell populations can be distinguished by green fluorescence (apoptotic cells), red fluorescence (necrotic/dead cells), and no fluorescence (live cells) during flow cytometry with 488 nm laser excitation. Control or drug-treated cells were processed as per manufacturer's instructions, followed by flow cytometry of 10,000 cells per point with an LSR II (BD Biosciences, San Jose, Calif.) at the USC Flow Cytometry Core Facility.

[4] = biological target: T1, GAPDH; test: GAPDH activity assay, drugs added to cell lysates (cell-free); type: biochemical; set-up: endogenous in cells; host or cells: MDA-MB-231 cell lysate; conditions: for inhibition of GAPDH enzyme activity: cell lysates incubated with drug for 1 hour; for effect of NAC or GSH on drug-induced inhibition of GAPDH activity: cell lysates, 1 mM NAC or GSH
Procedure: as §1
The capacity of NEO218 to inhibit the enzymatic function of GAPDH in a cell-free system was investigated. Cell lysates were incubated with NEO218 and 3-BP (individually) for 1 hour, and enzymatic activity of GAPDH (glyceraldehyde-3-phosphate dehydrogenase) was determined. Increasing concentrations of NEO218 and 3-BP were applied. Separately, 50 μM NEO218 and 3-BP, respectively, were applied together with 1 mM NAC or GSH. The enzymatic activity of GAPDH was determined with the use of a commercially available GAPDH activity assay kit.
Enzymatic activity of GAPDH in vitro was measured with the Colorimetric GAPDH Assay kit (ScienCell Research Laboratories, Carlsbad, Calif.). This assay is based on the oxidization of β-NADH to β-NAD in the presence of 3-phosphoglyceric acid, ATP and GAPDH. GAPDH activity is determined by assaying the rate of NADH oxidation, which is proportional to the reduction in absorbance at 340 nm over time (ΔA340 nm/min). One hundred thousand cells were lysed in 100 μL cell lysis buffer and incubated with the above components. Changes in absorbance over 10 minutes were calculated and normalized to untreated controls. Data are presented as percentage of controls. Two types of drug treatments were performed: in one approach, drugs were added to proliferating cells for 30 minutes under regular cell culture conditions; in the other approach, drugs were added to cell lysates for 1 hour at 4° C.

[5] = all cell types, FIGS. 2-5, read-out: IC50 (ability of a drug to reduce cell survival by 50%)

T1 sequence (P04406 whole entry): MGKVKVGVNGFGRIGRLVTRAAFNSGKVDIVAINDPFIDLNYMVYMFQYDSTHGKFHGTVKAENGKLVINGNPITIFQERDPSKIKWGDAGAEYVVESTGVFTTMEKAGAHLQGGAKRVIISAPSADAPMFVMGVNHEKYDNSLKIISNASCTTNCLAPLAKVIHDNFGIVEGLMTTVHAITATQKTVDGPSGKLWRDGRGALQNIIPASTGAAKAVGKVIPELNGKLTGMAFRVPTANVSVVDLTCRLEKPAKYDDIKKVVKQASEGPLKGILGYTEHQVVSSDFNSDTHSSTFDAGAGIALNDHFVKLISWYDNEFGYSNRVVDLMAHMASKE

**Q.** How did the IC50 [1, 5] turn out when `O=C(O)C(=O)CBr` [3-BP, 3-bromopyruvate] was run?
**A.** 10 to 200 µM

**Q.** What about the IC50 ([1]; cell types in which 3-BP is not similarly potent, read-out: concentrations required for cell death in less sensitive cell types) of the same compound?
**A.** > 200 µM

**Q.** And the IC50 [2]?
**A.** < 30 µM

**Q.** What about the “incorporation of PI (necrosis) versus annexin V (apoptosis)” value [3] of the same compound?
**A.** vigorous incorporation of PI, but very little annexin V

**Q.** And the “incorporation of PI (necrosis) versus annexin V (apoptosis)” value ([3]; listed as 3-GP)?
**A.** move straight from the bottom left quadrant to the upper right quadrant

**Q.** And the “earliest detection of shift to PI-positive quadrant after onset of treatment” value [3]?
**A.** 2 h

**Q.** What about the “PI-positive cells at 8 hours” value [3] of the same compound?
**A.** the majority of cells was PI-positive

**Q.** What about the “inhibition of GAPDH enzyme activity” value [4] of the same compound?
**A.** potent inhibition of GAPDH enzyme activity; also recorded: potently decreased enzymatic GAPDH activity

**Q.** And the “effect of NAC or GSH on drug-induced inhibition of GAPDH activity” value [4]?
**A.** effectively prevented the drug-induced inhibition of GAPDH activity; also recorded: completely prevented

**Q.** Which IC50 [1, 5] does the source give for `C=C(C)[C@@H]1CC=C(COC(=O)C(=O)CBr)CC1` [NEO218, 3-bromo-2-oxo-propionic acid 4-isopropenyl-cyclohex-1-enylmethyl ester] here?
**A.** 5 to 30 µM

**Q.** What about the “killing of drug-resistant cells” value ([1]; T98G (TMZ-resistant) and MCF7/Dox (multi-drug-resistant) cells) of the same compound?
**A.** effectively killed

**Q.** And the IC50 ([2]; HCT116 cells treated 30 minutes, then lysed, read-out: IC50 (GAPDH activity))?
**A.** < 30 µM

**Q.** What about the “incorporation of PI (necrosis) versus annexin V (apoptosis)” value [3] of the same compound?
**A.** move straight from the bottom left quadrant to the upper right quadrant; also recorded: vigorous incorporation of PI, but very little annexin V

**Q.** What about the “time to initiation of cell death” value ([3]; FIG. 8 and LDH time course of FIG. 4) of the same compound?
**A.** 1 to 2 h

**Q.** And the “earliest detection of shift to PI-positive quadrant after onset of treatment” value [3]?
**A.** 2 h

**Q.** And the “PI-positive cells at 8 hours” value [3]?
**A.** the majority of cells was PI-positive

**Q.** And the “inhibition of GAPDH enzyme activity” value [4]?
**A.** potent inhibition of GAPDH enzyme activity; also recorded: potently decreased enzymatic GAPDH activity

**Q.** What about the “effect of NAC or GSH on drug-induced inhibition of GAPDH activity” value [4] of the same compound?
**A.** effectively prevented the drug-induced inhibition of GAPDH activity; also recorded: completely prevented
